± gives the standard deviation of the reports.
Structure (SMILES)	glass transition temperature [°C]
*c1ccc(-c2nc3cc(-c4ccc5nc(*)c(-c6ccccc6)nc5c4)ccc3nc2-c2ccccc2)cc1 (repeat unit)	391.50
*/C=C/c1cccc(/C=C/[Si](C)(C)c2ccc([Si](*)(C)C)cc2)c1 (repeat unit)	38.10
*CC(*)(CC(=O)OCC)C(=O)O (repeat unit)	135.00
*Oc1cc(C(C)(C)C)c(Oc2ccc(C(=O)c3ccc(*)cc3)cc2)cc1C(C)(C)C (repeat unit)	206.00
*CCCCCCCOC(=O)c1ccc(-c2ccc(C(=O)O*)cc2)cc1 (repeat unit)	44.00
*O[Si](*)(C)CCCCCCOc1ccc(-c2ccc(C#N)cc2)cc1 (repeat unit)	10.00
*CC(*)C(=O)OCCC#N (repeat unit)	4.00
*Oc1ccc(CC(NC(=O)CCc2ccc(OC(=O)CCCCC(*)=O)cc2)C(=O)OCCCCCC)cc1 (repeat unit)	37.73
*CCCCCCOC(=O)OCCCCCCCCCCCCOC(=O)OCCCCCCOc1ccc(C(=O)c2ccc(O*)cc2)cc1 (repeat unit)	-8.00
*CC1CC(*)OC(CCC)O1 (repeat unit) [Poly(vinyl butyral)]	54.42 ± 9.2
*CCCS(=O)(=O)CCCS(=O)(=O)CCCOC(=O)c1cccc(C(=O)O*)c1 (repeat unit)	67.00
*CC(*)c1cc(C(=O)OCCCCCC)ccc1-c1ccc(OCCCCCCCC)cc1 (repeat unit)	64.00
*CCOCCOc1ccc(/C=C(\C)c2ccc(O*)cc2)cc1 (repeat unit)	39.00
*CC(COCC=C)O* (repeat unit) [poly(allyl glycidyl ether)]	-35.33 ± 57
*CCCCCCCCCCNC(=O)c1ccc(C(=O)N*)c(Sc2ccccc2)c1 (repeat unit)	100.00
*C(=O)c1ccc2c(c1)C(=O)N(c1ccc(Oc3cc4ccccc4cc3Oc3ccc(N4C(=O)c5ccc(*)cc5C4=O)cc3)cc1)C2=O (repeat unit)	246.00
*CC(*)c1ccc(C(=O)CCCCCCC)cc1 (repeat unit)	50.00
*CC(*)c1ccc(/C(C)=N/O)cc1 (repeat unit)	134.00
*CC(*)C(=O)Oc1c(F)c(F)c(F)c(F)c1F (repeat unit)	64.00
*c1ccc(Cc2ccc(N3C(=O)C(Cl)=C(Oc4ccc(C(c5ccc(OC6=C(Cl)C(=O)N(*)C6=O)cc5)(C(F)(F)F)C(F)(F)F)cc4)C3=O)cc2)cc1 (repeat unit)	189.00
*c1ccc(Oc2ccc(C(C)(C)c3ccc(Oc4ccc(-c5nnc(*)n5-c5ccc(S(=O)(=O)c6ccccc6)cc5)cc4)cc3)cc2)cc1 (repeat unit)	198.00
*Oc1ccc(C(C)(C)c2ccc(OC(=O)OCCCCCOC(*)=O)cc2)cc1 (repeat unit)	49.50
*CCCCCCCCCCCCNC(=O)CCCCCCCCCCCCCCCCC(=O)N* (repeat unit)	46.50
*CCCN1C(=O)C2C3C=CC(C4C(=O)N(*)C(=O)C34)C2C1=O (repeat unit)	210.00
*C(=O)Nc1ccc(C(=O)Nc2ccc(NC(=O)c3ccc4[nH]c(-c5ccc(-c6nc7cc(*)ccc7[nH]6)cc5)nc4c3)cc2)cc1 (repeat unit)	300.00

Structure (SMILES)	glass transition temperature [°C]
*CCCCCCCCCCCCCCNC(=O)CCCCCCCCCCCCCCCCC(=O)N* (repeat unit)	48.00
*CCCCCCOC(=O)OCCCCCCOC(=O)OCCCCCCOc1ccc(-c2ccc(O*)cc2)cc1 (repeat unit)	16.60
*Oc1ccc(C(C)(C)c2ccc(OC(=O)OCCCOC(*)=O)cc2)cc1 (repeat unit)	68.10
*Oc1ccc(NC(=O)c2ccc(Oc3ccc(C(C)(C)c4cccc(C(C)(C)c5ccc(Oc6ccc(C(=O)Nc7ccc(Oc8ccc(C(C)(C)c9ccc(*)cc9)cc8)cc7)cc6)cc5)c4)cc3)cc2)cc1 (repeat unit)	147.00
*CCC(*)=O (repeat unit)	15.00
*CC(CO*)(CSC(C)C)CSC(C)C (repeat unit)	-9.00
*Oc1ccc2ccc(OC(=O)c3ccc(Oc4ccc(C(*)=O)cc4)cc3)cc2c1 (repeat unit)	142.00
*/C=C/c1sc(/C=C/c2ccc3c4ccc(*)cc4n(CC(CC)CCCC)c3c2)c(CC(CC)CCCC)c1CC(CC)CCCC (repeat unit)	60.00
*O[Si](C)(C)C#C[Si](C)(C)C#C[Si](C)(C)C#C[Si](C)(C)C#C[Si](C)(C)C#C[Si](C)(C)C#C[Si](*)(C)C (repeat unit)	-12.60
*C1Cc2ccccc2C1* (repeat unit)	188.50
*c1ccc2c(c1)C(=O)N(c1ccc(Oc3ccc(N4C(=O)c5ccc(C(*)(C(F)(F)F)C(F)(F)F)cc5C4=O)cc3Br)c(Br)c1)C2=O (repeat unit)	299.00
*CC(*)(F)C(=O)OCC(F)(F)C(F)(F)F (repeat unit)	99.00
*Oc1ccc(CC(NC(=O)CCc2ccc(OC(=O)COCC(*)=O)cc2)C(=O)OCC(C)C)cc1 (repeat unit)	72.00
*Oc1ccc(C(=O)Nc2ccc(C(c3ccc(NC(=O)c4ccc(OC(=O)c5cccc(C(*)=O)c5)cc4)cc3)(C(F)(F)F)C(F)(F)F)cc2)cc1 (repeat unit)	227.00
*CC(OC(=O)OCC)C(COC(=O)O*)OC(=O)OCC (repeat unit)	49.80
*CCCCCCOC(=O)OCCCCCCOC(=O)OCCCCCCOc1ccc(Oc2ccc(O*)cc2)cc1 (repeat unit)	-13.00
*C(=O)Nc1ccc(Oc2ccc(S(=O)(=O)c3ccc(Oc4ccc(NC(=O)c5ccc6c(c5)C(=O)N(c5ccc(Oc7cccc8c(Oc9ccc(N%10C(=O)c%11ccc(*)cc%11C%10=O)cc9)cccc78)cc5)C6=O)cc4)cc3)cc2)cc1 (repeat unit)	260.00
*c1cccc(Oc2cccc(Oc3cccc(N4C(=O)c5ccc(Oc6ccc7c(c6)C(=O)N(*)C7=O)cc5C4=O)c3)c2)c1 (repeat unit)	193.00 ± 8.5
*CCCCCCCCCCC(=O)Oc1ccc(-c2ccc(OC(=O)c3ccc4c(c3)C(=O)N(*)C4=O)cc2)cc1 (repeat unit)	61.00
*CC(*)(CF)C(=O)OCC (repeat unit)	43.00
*c1cc(C(c2ccc(OCCN(C)c3ccc(/C=C/C4=CC(=C(C#N)C#N)CC(C)(C)C4)cc3)c(N3C(=O)c4ccc(Oc5ccc6c(c5)C(=O)N(*)C6=O)cc4C3=O)c2)(C(F)(F)F)C(F)(F)F)ccc1OCCN(C)c1ccc(/C=C/C2=CC(=C(C#N)C#N)CC(C)(C)C2)cc1 (repeat unit)	215.00
*CC(*)CCCCCCCC (repeat unit)	-35.00
*C(=O)c1ccc2c(c1)C(=O)N(c1ccc(Oc3cc(C(C)(C)C)c(Oc4ccc(N5C(=O)c6ccc(*)cc6C5=O)cc4)cc3C(C)(C)C)cc1)C2=O (repeat unit)	288.00
*Nc1ccc(NC(=O)c2ccc(C(=O)c3ccc(C(*)=O)c(C(=O)OCC)c3)cc2C(=O)OCC)cc1 (repeat unit)	275.00
